Assay results published in ChEMBL document CHEMBL3817755, “Design, synthesis and biological evaluation of indazolepyrimidine based derivatives as anticancer agents with anti-angiogenic and antiproliferative activities” (Medchemcomm, 2016).

Columns and labels:
Type in all cases: functional
[1] = Growth inhibition of human OVCAR5 cells at 10 uM after 48 hrs by SRB assay; settings: OVCAR-5, 48 h, read-out: GI
NCI-H522 = test: Growth inhibition of human NCI-H522 cells at 10 uM after 48 hrs by SRB assay; settings: NCI-H522, 48 h, read-out: GI
[2] = Growth inhibition of human SW620 cells at 10 uM after 48 hrs by SRB assay; settings: SW-620, 48 h, read-out: GI
[3] = Growth inhibition of human OVCAR4 cells at 10 uM after 48 hrs by SRB assay; settings: OVCAR-4, 48 h, read-out: GI
[4] = Growth inhibition of human COLO205 cells at 10 uM after 48 hrs by SRB assay; settings: COLO 205, 48 h, read-out: GI
[5] = Growth inhibition of human HOP62 cells at 10 uM after 48 hrs by SRB assay; settings: HOP-62, 48 h, read-out: GI
[6] = Growth inhibition of human DU145 cells at 10 uM after 48 hrs by SRB assay; settings: DU-145, 48 h, read-out: GI
MCF7 = test: Growth inhibition of human MCF7 cells at 10 uM after 48 hrs by SRB assay; settings: MCF7, 48 h, read-out: GI
SN12C = test: Growth inhibition of human SN12C cells at 10 uM after 48 hrs by SRB assay; settings: read-out: GI
A549 = test: Growth inhibition of human A549/ATCC cells at 10 uM after 48 hrs by SRB assay; settings: A549, 48 h, read-out: GI
[7] = Growth inhibition of human SF539 cells at 10 uM after 48 hrs by SRB assay; settings: SF-539, 48 h, read-out: GI
[8] = Growth inhibition of human SF295 cells at 10 uM after 48 hrs by SRB assay; settings: SF-295, 48 h, read-out: GI
NCI-H23 = test: Growth inhibition of human NCI-H23 cells at 10 uM after 48 hrs by SRB assay; settings: NCI-H23, 48 h, read-out: GI
[9] = Growth inhibition of human LOXIMVI cells at 10 uM after 48 hrs by SRB assay; settings: LOX IMVI, read-out: GI
[10] = Growth inhibition of human Caki1 cells at 10 uM after 48 hrs by SRB assay; settings: CAKI-1, 48 h, read-out: GI
[11] = Growth inhibition of human TK10 cells at 10 uM after 48 hrs by SRB assay; settings: TK-10, 48 h, read-out: GI
NCI-H226 = test: Growth inhibition of human NCI-H226 cells at 10 uM after 48 hrs by SRB assay; settings: NCI-H226, 48 h, read-out: GI
[12] = Growth inhibition of human RXF393 cells at 10 uM after 48 hrs by SRB assay; settings: RXF 393, 48 h, read-out: GI
[13] = Growth inhibition of human MOLT4 cells at 10 uM after 48 hrs by SRB assay; settings: MOLT-4, 48 h, read-out: GI
HT-29 = test: Growth inhibition of human HT-29 cells at 10 uM after 48 hrs by SRB assay; settings: HT-29, 48 h, read-out: GI
Malme-3M = test: Growth inhibition of human MALME-3M cells at 10 uM after 48 hrs by SRB assay; settings: read-out: GI
[14] = Growth inhibition of human HCC2998 cells at 10 uM after 48 hrs by SRB assay; settings: HCC 2998, 48 h, read-out: GI
MDA-MB-435 = test: Growth inhibition of human MDA-MB-435 cells at 10 uM after 48 hrs by SRB assay; settings: MDA-MB-435, 48 h, read-out: GI
[15] = Growth inhibition of human PC3 cells at 10 uM after 48 hrs by SRB assay; settings: PC-3, 48 h, read-out: GI
[16] = Growth inhibition of human OVCAR8 cells at 10 uM after 48 hrs by SRB assay; settings: OVCAR-8, 48 h, read-out: GI
[17] = Growth inhibition of human SF268 cells at 10 uM after 48 hrs by SRB assay; settings: SF-268, 48 h, read-out: GI
[18] = Growth inhibition of human SNB75 cells at 10 uM after 48 hrs by SRB assay; settings: SNB-75, 48 h, read-out: GI
[19] = Growth inhibition of human UACC257 cells at 10 uM after 48 hrs by SRB assay; settings: UACC-257, 48 h, read-out: GI
SK-MEL-5 = test: Growth inhibition of human SK-MEL-5 cells at 10 uM after 48 hrs by SRB assay; settings: SK-MEL-5, 48 h, read-out: GI
SK-MEL-2 = test: Growth inhibition of human SK-MEL-2 cells at 10 uM after 48 hrs by SRB assay; settings: SK-MEL-2, 48 h, read-out: GI
[20] = Growth inhibition of human HOP92 cells at 10 uM after 48 hrs by SRB assay; settings: HOP-92, 48 h, read-out: GI
NCI-H322M = test: Growth inhibition of human NCI-H322M cells at 10 uM after 48 hrs by SRB assay; settings: read-out: GI
[21] = Growth inhibition of human UO31 cells at 10 uM after 48 hrs by SRB assay; settings: UO-31, 48 h, read-out: GI
ACHN = test: Growth inhibition of human ACHN cells at 10 uM after 48 hrs by SRB assay; settings: read-out: GI
[22] = Growth inhibition of human BT549 cells at 10 uM after 48 hrs by SRB assay; settings: BT-549, 48 h, read-out: GI
K562 = test: Growth inhibition of human K562 cells at 10 uM after 48 hrs by SRB assay; settings: K562, 48 h, read-out: GI
786-0 = test: Growth inhibition of human 786-0 cells at 10 uM after 48 hrs by SRB assay; settings: 786-0, 48 h, read-out: GI
[23] = Growth inhibition of human SKOV3 cells at 10 uM after 48 hrs by SRB assay; settings: SK-OV-3, 48 h, read-out: GI
[24] = Growth inhibition of human IGROV1 cells at 10 uM after 48 hrs by SRB assay; settings: IGROV-1, 48 h, read-out: GI
[25] = Growth inhibition of human OVCAR3 cells at 10 uM after 48 hrs by SRB assay; settings: OVCAR-3, 48 h, read-out: GI
[26] = Growth inhibition of human Hs 578T cells at 10 uM after 48 hrs by SRB assay; settings: read-out: GI
[27] = Growth inhibition of human NCI-ADR-RES cells at 10 uM after 48 hrs by SRB assay; settings: read-out: GI
CCRF-CEM = test: Growth inhibition of human CCRF-CEM cells at 10 uM after 48 hrs by SRB assay; settings: read-out: GI

Structure (SMILES): COc1cccc(Nc2nccc(Nc3ccc4[nH]ncc4c3)n2)c1
- inhibition of growth at 10 µM [1]: 67%
- inhibition of growth at 10 µM (NCI-H522): 168%
- inhibition of growth at 10 µM [2]: 169%
- inhibition of growth at 10 µM [3]: 160%
- inhibition of growth at 10 µM [4]: 188%
- inhibition of growth at 10 µM [5]: 111%
- inhibition of growth at 10 µM [6]: 159%
- inhibition of growth at 10 µM (MCF7): 151%
- inhibition of growth at 10 µM (SN12C): 80%
- inhibition of growth at 10 µM (A549): 168%
- inhibition of growth at 10 µM [7]: 86%
- inhibition of growth at 10 µM [8]: 84%
- inhibition of growth at 10 µM (NCI-H23): 129%
- inhibition of growth at 10 µM [9]: 167%
- inhibition of growth at 10 µM [10]: 131%
- inhibition of growth at 10 µM [11]: 178%
- inhibition of growth at 10 µM (NCI-H226): 117%
- inhibition of growth at 10 µM [12]: 82%
- inhibition of growth at 10 µM [13]: 132%
- inhibition of growth at 10 µM (HT-29): 158%
- inhibition of growth at 10 µM (Malme-3M): 149%
- inhibition of growth at 10 µM [14]: 107%
- inhibition of growth at 10 µM (MDA-MB-435): 178%
- inhibition of growth at 10 µM [15]: 181%
- inhibition of growth at 10 µM [16]: 181%
- inhibition of growth at 10 µM [17]: 74%
- inhibition of growth at 10 µM [18]: 70%
- inhibition of growth at 10 µM [19]: 89%
- inhibition of growth at 10 µM (SK-MEL-5): 184%
- inhibition of growth at 10 µM (SK-MEL-2): 137%
- inhibition of growth at 10 µM [20]: 111%
- inhibition of growth at 10 µM (NCI-H322M): 93%
- inhibition of growth at 10 µM [21]: 162%
- inhibition of growth at 10 µM (ACHN): 103%
- inhibition of growth at 10 µM [22]: 116%
- inhibition of growth at 10 µM (K562): 110%
- inhibition of growth at 10 µM (786-0): 112%
- inhibition of growth at 10 µM [23]: 85%
- inhibition of growth at 10 µM [24]: 124%
- inhibition of growth at 10 µM [25]: 161%
- inhibition of growth at 10 µM [26]: 76%
- inhibition of growth at 10 µM [27]: 111%

Structure (SMILES): Clc1ccc(Nc2nccc(Nc3ccc4[nH]ncc4c3)n2)cc1
- inhibition of growth at 10 µM [1]: 35%
- inhibition of growth at 10 µM (NCI-H522): 79%
- inhibition of growth at 10 µM [2]: 67%
- inhibition of growth at 10 µM [3]: 51%
- inhibition of growth at 10 µM [4]: 58%
- inhibition of growth at 10 µM [5]: 34%
- inhibition of growth at 10 µM [6]: 50%
- inhibition of growth at 10 µM (MCF7): 75%
- inhibition of growth at 10 µM (SN12C): 48%
- inhibition of growth at 10 µM (A549): 50%
- inhibition of growth at 10 µM [7]: 24%
- inhibition of growth at 10 µM [8]: 29%
- inhibition of growth at 10 µM (NCI-H23): 54%
- inhibition of growth at 10 µM [9]: 55%
- inhibition of growth at 10 µM [10]: 48%
- inhibition of growth at 10 µM [11]: 38%
- inhibition of growth at 10 µM (NCI-H226): 72%
- inhibition of growth at 10 µM [12]: 65%
- inhibition of growth at 10 µM (CCRF-CEM): 95%
- inhibition of growth at 10 µM [13]: 77%
- inhibition of growth at 10 µM (HT-29): 83%
- inhibition of growth at 10 µM (Malme-3M): 12%
- inhibition of growth at 10 µM [14]: 6%
- inhibition of growth at 10 µM (MDA-MB-435): 44%
- inhibition of growth at 10 µM [15]: 75%
- inhibition of growth at 10 µM [16]: 78%
- inhibition of growth at 10 µM [17]: 40%
- inhibition of growth at 10 µM [18]: 32%
- inhibition of growth at 10 µM [19]: 12%
- inhibition of growth at 10 µM (SK-MEL-5): 74%
- inhibition of growth at 10 µM [20]: 101%
- inhibition of growth at 10 µM (NCI-H322M): 25%
- inhibition of growth at 10 µM [21]: 83%
- inhibition of growth at 10 µM (ACHN): 53%
- inhibition of growth at 10 µM [22]: 47%
- inhibition of growth at 10 µM (K562): 108%
- inhibition of growth at 10 µM (786-0): 43%
- inhibition of growth at 10 µM [23]: 12%
- inhibition of growth at 10 µM [24]: 53%
- inhibition of growth at 10 µM [25]: 48%
- inhibition of growth at 10 µM [26]: 38%
- inhibition of growth at 10 µM [27]: 61%

Structure (SMILES): Fc1ccc(Nc2nccc(Nc3ccc4[nH]ncc4c3)n2)cc1
- inhibition of growth at 10 µM [1]: 32%
- inhibition of growth at 10 µM (NCI-H522): 57%
- inhibition of growth at 10 µM [2]: 31%
- inhibition of growth at 10 µM [3]: 27%
- inhibition of growth at 10 µM [4]: 39%
- inhibition of growth at 10 µM [5]: 41%
- inhibition of growth at 10 µM [6]: 34%
- inhibition of growth at 10 µM (MCF7): 37%
- inhibition of growth at 10 µM (SN12C): 40%
- inhibition of growth at 10 µM (A549): 43%
- inhibition of growth at 10 µM [7]: 22%
- inhibition of growth at 10 µM [8]: 11%
- inhibition of growth at 10 µM (NCI-H23): 27%
- inhibition of growth at 10 µM [9]: 32%
- inhibition of growth at 10 µM [10]: 51%
- inhibition of growth at 10 µM [11]: 38%
- inhibition of growth at 10 µM (NCI-H226): 53%
- inhibition of growth at 10 µM [12]: 67%
- inhibition of growth at 10 µM [13]: 74%
- inhibition of growth at 10 µM (HT-29): 47%
- inhibition of growth at 10 µM (Malme-3M): 3%
- inhibition of growth at 10 µM [14]: 1%
- inhibition of growth at 10 µM (MDA-MB-435): 25%
- inhibition of growth at 10 µM [15]: 54%
- inhibition of growth at 10 µM [16]: 59%
- inhibition of growth at 10 µM [17]: 29%
- inhibition of growth at 10 µM [18]: 15%
- inhibition of growth at 10 µM [19]: 26%
- inhibition of growth at 10 µM (SK-MEL-5): 66%
- inhibition of growth at 10 µM (SK-MEL-2): 24%
- inhibition of growth at 10 µM [20]: 81%
- inhibition of growth at 10 µM (NCI-H322M): 27%
- inhibition of growth at 10 µM [21]: 61%
- inhibition of growth at 10 µM (ACHN): 47%
- inhibition of growth at 10 µM [22]: 33%
- inhibition of growth at 10 µM (K562): 61%
- inhibition of growth at 10 µM (786-0): 32%
- inhibition of growth at 10 µM [23]: 24%
- inhibition of growth at 10 µM [24]: 44%
- inhibition of growth at 10 µM [25]: 14%
- inhibition of growth at 10 µM [26]: 35%
- inhibition of growth at 10 µM [27]: 32%
